Measured values: patent US10774051B2, “6-membered heterocyclic derivatives and pharmaceutical composition comprising the same” (Shionogi & Co., Ltd., priority 2015, dated 2020)

Target: human P2X7 receptor (Homo sapiens, UniProt Q99572, R270H/Y155H)
Test: Evaluation of human P2X7 receptor inhibitory activity (Yo-Pro uptake, BzATP stimulation, FLIPR TETRA)
Type: cell-based
Conditions: 1321N1 cells stably expressing human P2X7 receptor; BzATP stimulation, Yo-Pro uptake; read-out: IC50 (antagonistic activity for the human P2X7 receptor)
Summary of the method: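 1321N1 cells stably expressing human P2X7 (T606C/G952A SNP variant), in HBSS buffer pH 7.4-7.5 with Yo-Pro, stimulated with BzATP; compound added 8 min after agonist. Fluorescence followed for 20 min on FLIPR; max-minus-min change gave % inhibition, IC50 by logistic fit.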

First: COc1cn(Cc2ccc(F)cc2)c(Nc2cc3c(cc2C)OCCO3)nc1=O [Compound I-0289]
Second: COc1cn(Cc2ccc(C(F)(F)F)cc2)c(Nc2cccc(Cl)c2C)nc1=O [Compound I-0297]
The IC50 of the first is 9.3-fold lower: 27 nM for the first, 250 nM for the second.

`COc1cn(Cc2ccccc2C(F)(F)F)c(Nc2cccc(Cl)c2C)nc1=O` [Compound I-0294] and `COc1cn(Cc2cccc(C(F)(F)F)c2)c(Nc2cccc(Cl)c2C)nc1=O` [Compound I-0295] are within 1.5-fold of each other in IC50: 250 nM for the first, 170 nM for the second.

`COc1cn(Cc2ccc(F)c(Cl)c2)c(N[C@@H]2CCc3ccccc32)nc1=O` [Compound I-0335] and `COc1cn(Cc2ccc(F)c(Cl)c2)c(N[C@@H]2CCCc3ccccc32)nc1=O` [Compound I-0336] are within 1.5-fold of each other in IC50: 170 nM for the first, 120 nM for the second.

Same assay, conditions: 1321N1 cells stably expressing human P2X7 receptor; BzATP stimulation, Yo-Pro uptake; read-out: IC50 (antagonistic activity for the human P2X7 receptor), class symbol

`CCc1cc(OC)c(OC)cc1Nc1nc(=O)c(OC)cn1Cc1ccccc1` [Compound I-0256] and `CCc1cc(OC)c(OC)cc1Nc1nc(=O)c(F)cn1Cc1ccccc1` [Compound I-0266] cannot be ordered by IC50: less than 10 nM for the first, less than 10 nM for the second.

`CCOc1cc(C)c(Nc2nc(=O)c(OC)cn2Cc2cccc(F)c2)cc1C` [Compound I-0257] and `CCOc1cc(C)c(Nc2nc(=O)c(OC)cn2Cc2cccc(Cl)c2)cc1C` [Compound I-0259] cannot be ordered by IC50: less than 10 nM for the first, less than 10 nM for the second.

`CCOc1cc(C)c(Nc2nc(=O)c(OC)cn2Cc2ccc(F)cc2)cc1C` [Compound I-0258] and `COc1cc(C)c(Nc2nc(=O)c(OC)cn2Cc2ccc(F)cc2)cc1C` [Compound I-0282] cannot be ordered by IC50: less than 10 nM for the first, less than 10 nM for the second.

`CCOc1cc(C)c(Nc2nc(=O)c(OC)cn2Cc2ccc(F)c(F)c2)cc1C` [Compound I-0260] and `COc1cc(C)c(Nc2nc(=O)c(OC)cn2Cc2ccc(F)c(F)c2)cc1C` [Compound I-0283] cannot be ordered by IC50: less than 10 nM for the first, less than 10 nM for the second.

`CCc1cc(OC)ccc1Nc1nc(=O)c(OC)cn1Cc1cccc(F)c1` [Compound I-0261] and `CCc1cc(OC)ccc1Nc1nc(=O)c(OC)cn1Cc1cccc(Cl)c1` [Compound I-0263] cannot be ordered by IC50: less than 10 nM for the first, less than 10 nM for the second.

`CCc1cc(OC)ccc1Nc1nc(=O)c(OC)cn1Cc1ccc(F)cc1` [Compound I-0262] and `CCc1cc(OC)ccc1Nc1nc(=O)c(OC)cn1Cc1ccc(F)c(F)c1` [Compound I-0264] cannot be ordered by IC50: less than 10 nM for the first, less than 10 nM for the second.

`CCc1cc(C)c(C)cc1Nc1nc(=O)c(OC)cn1Cc1ccccc1` [Compound I-0265] and `COc1cn(Cc2ccccc2)c(Nc2cc(CO)c(C)cc2C)nc1=O` [Compound I-0278] cannot be ordered by IC50: less than 10 nM for the first, less than 10 nM for the second.

`CCc1cc(OC)c(OC)cc1Nc1nc(=O)c(F)cn1Cc1ccc(F)cc1` [Compound I-0267] and `CCc1cc(OC)c(OC)cc1Nc1nc(=O)c(OC)cn1Cc1ccc(F)cc1` [Compound I-0270] cannot be ordered by IC50: less than 10 nM for the first, less than 10 nM for the second.

`CCc1cc(OC)c(OC)cc1Nc1nc(=O)c(F)cn1Cc1ccc(F)c(Cl)c1` [Compound I-0268] and `COc1cc(C)c(Nc2nc(=O)c(F)cn2Cc2ccc(F)c(Cl)c2)cc1OC` [Compound I-0309] cannot be ordered by IC50: less than 10 nM for the first, less than 10 nM for the second.

`CCc1cc(OC)c(OC)cc1Nc1nc(=O)c(OC)cn1Cc1cccc(F)c1` [Compound I-0269] and `CCc1cc(OC)c(OC)cc1Nc1nc(=O)c(OC)cn1Cc1cccc(Cl)c1` [Compound I-0271] cannot be ordered by IC50: less than 10 nM for the first, less than 10 nM for the second.

`CCc1cc(OC)c(OC)cc1Nc1nc(=O)c(OC)cn1Cc1ccc(F)c(F)c1` [Compound I-0272] and `CCc1cc(OC)c(OC)cc1Nc1nc(=O)c(OC)cn1Cc1ccc(F)c(Cl)c1` [Compound I-0273] cannot be ordered by IC50: less than 10 nM for the first, less than 10 nM for the second.

First: COc1cc(C)c(Nc2nc(=O)c(OC)cn2Cc2cccc(F)c2)cc1OC [Compound I-0274]
Second: COc1cc(C)c(Nc2nc(=O)c(OC)cn2Cc2ccc(F)cc2)cc1OC [Compound I-0275]
The IC50 of the first is lower: less than 10 nM for the first, 10 to 100 nM for the second. The first is the more potent here.

First: COc1cc(C)c(Nc2nc(=O)c(OC)cn2Cc2ccc(F)c(F)c2)cc1OC [Compound I-0276]
Second: COc1cn(Cc2ccc(F)c(F)c2)c(Nc2cc(C)c(C)cc2C)nc1=O [Compound I-0277]
The IC50 of the first is higher: 10 to 100 nM for the first, less than 10 nM for the second. The second is the more potent here.

`COc1cn(Cc2ccc(F)c(F)c2)c(Nc2cc(C)c(Cl)cc2C)nc1=O` [Compound I-0279] and `COc1cn(Cc2ccc(F)c(F)c2)c(Nc2cc(C)c(OC(F)F)cc2C)nc1=O` [Compound I-0302] cannot be ordered by IC50: less than 10 nM for the first, less than 10 nM for the second.

`COc1cn(Cc2ccc(Cl)c(F)c2)c(Nc2cccc(Cl)c2C)nc1=O` [Compound I-0280] and `COc1cn(Cc2ccc(Cl)c(Cl)c2)c(Nc2cccc(Cl)c2C)nc1=O` [Compound I-0296] fall in the same range of IC50: 10 to 100 nM for the first, 10 to 100 nM for the second.

First: COc1cc(C)cc(Nc2nc(=O)c(OC)cn2Cc2ccccc2)c1C [Compound I-0281]
Second: COc1cn(Cc2ccccc2)c(Nc2cc(C)cc(C)c2C)nc1=O [Compound I-0298]
The IC50 of the first is lower: less than 10 nM for the first, 10 to 100 nM for the second. The first is the more potent here.

First: Cc1cc(C)c(Nc2nc(=O)c(C(=O)NCc3ccccc3)cn2Cc2ccccc2)cc1C [Compound I-0284]
Second: Cc1cc(C)c(Nc2nc(=O)c(Cl)cn2Cc2ccccc2)cc1C [Compound I-0307]
The IC50 of the first is higher: 500 to 1000 nM for the first, less than 10 nM for the second.

First: COc1cn(Cc2cc(F)cc(Cl)c2)c(Nc2cccc(Cl)c2C)nc1=O [Compound I-0285]
Second: COc1cn(Cc2cc(Cl)cc(Cl)c2)c(Nc2cccc(Cl)c2C)nc1=O [Compound I-0317]
The IC50 of the first is lower: 10 to 100 nM for the first, 100 to 500 nM for the second. The first is the more potent here.

First: COc1cn(Cc2cccc(F)c2F)c(Nc2cccc(Cl)c2C)nc1=O [Compound I-0286]
Second: COc1cn(Cc2c(F)cccc2F)c(Nc2cccc(Cl)c2C)nc1=O [Compound I-0311]
The IC50 of the first is lower: 10 to 100 nM for the first, 100 to 500 nM for the second.

`COc1cn(Cc2ccccc2)c(Nc2cc3c(cc2C)OCCO3)nc1=O` [Compound I-0287] and `COc1cn(Cc2cccc(Cl)c2)c(Nc2cc3c(cc2C)OCCO3)nc1=O` [Compound I-0290] fall in the same range of IC50: 10 to 100 nM for the first, 10 to 100 nM for the second.

`COc1cn(Cc2cccc(F)c2)c(Nc2cc3c(cc2C)OCCO3)nc1=O` [Compound I-0288] and `COc1cn(Cc2ccc(F)c(F)c2)c(Nc2cc3c(cc2C)OCCO3)nc1=O` [Compound I-0291] fall in the same range of IC50: 10 to 100 nM for the first, 10 to 100 nM for the second.

`COc1cn(Cc2ccc(F)c(Cl)c2)c(Nc2cc3c(cc2C)OCCO3)nc1=O` [Compound I-0292] and `COc1cn(Cc2ccc(Cl)c(F)c2)c(Nc2cc3c(cc2C)OCCO3)nc1=O` [Compound I-0293] fall in the same range of IC50: 10 to 100 nM for the first, 10 to 100 nM for the second.

Compared with `COc1cn(Cc2cccc(Cl)c2)c(Nc2cc(C)c(OC(F)F)cc2C)nc1=O` [Compound I-0299], `COc1cn(Cc2cccc(F)c2)c(Nc2cc(C)c(OC(F)F)cc2C)nc1=O` [Compound I-0300] is lower in IC50: 10 to 100 nM for the first, less than 10 nM for the second. The second is the more potent here.

`COc1cn(Cc2ccc(F)cc2)c(Nc2cc(C)c(OC(F)F)cc2C)nc1=O` [Compound I-0301] and `COc1cc(C)c(Nc2nc(=O)c(F)cn2Cc2ccc(F)cc2)cc1C` [Compound I-0319] cannot be ordered by IC50: less than 10 nM for the first, less than 10 nM for the second.

First: COc1cn(Cc2ccccc2OC(F)(F)F)c(Nc2cccc(Cl)c2C)nc1=O [Compound I-0303]
Second: COc1cn(Cc2cccc(OC(F)(F)F)c2)c(Nc2cccc(Cl)c2C)nc1=O [Compound I-0304]
The IC50 of the first is lower: 100 to 500 nM for the first, 500 to 1000 nM for the second.

`Cc1cc(C)c(Nc2nc(=O)c(F)cn2Cc2ccc(F)cc2)cc1C` [Compound I-0306] and `CCc1c(Nc2nc(=O)c(F)cn2Cc2ccc(F)cc2)cc(OC)cc1OC` [Compound I-0314] cannot be ordered by IC50: less than 10 nM for the first, less than 10 nM for the second.

`COc1cc(C)c(Nc2nc(=O)c(F)cn2Cc2cccc(Cl)c2)cc1OC` [Compound I-0308] and `CCc1c(Nc2nc(=O)c(F)cn2Cc2cccc(Cl)c2)cc(OC)cc1OC` [Compound I-0315] cannot be ordered by IC50: less than 10 nM for the first, less than 10 nM for the second.

Compared with `COc1cc(C)c(Nc2nc(=O)c(Cl)cn2Cc2ccccc2)cc1OC` [Compound I-0310], `COc1cc(C)c(Nc2nc(=O)c(F)cn2Cc2ccccc2)cc1C` [Compound I-0318] is lower in IC50: 10 to 100 nM for the first, less than 10 nM for the second.

First: COc1cn(Cc2cccc(Cl)c2)c(Nc2cccc(C)c2C)nc1=O [Compound I-0312]
Second: COc1cn(Cc2cccc(F)c2)c(Nc2cccc(C)c2C)nc1=O [Compound I-0323]
The IC50 of the first is higher: 10 to 100 nM for the first, less than 10 nM for the second.

First: Cc1ccc(N2CCCS2(=O)=O)cc1Nc1nc(=O)c(Cl)cn1Cc1ccccc1 [Compound I-0313]
Second: COc1cn(Cc2ccccc2)c(Nc2cc(OC(C)C)ccc2C)nc1=O [Compound I-0320]
The IC50 of the first is lower: 10 to 100 nM for the first, 100 to 500 nM for the second. The first is the more potent here.

Compared with `CCc1c(Nc2nc(=O)c(F)cn2Cc2ccc(F)c(Cl)c2)cc(OC)cc1OC` [Compound I-0316], `COc1cn(Cc2ccc(F)c(Cl)c2)c(Nc2cc(OC(C)C)ccc2C)nc1=O` [Compound I-0321] is higher in IC50: less than 10 nM for the first, 10 to 100 nM for the second. The first is the more potent here.

`CCc1ccccc1Nc1nc(=O)c(OC)cn1Cc1cccc(Cl)c1` [Compound I-0322] and `COc1cn(Cc2cccc(Cl)c2)c(Nc2cc(C)ccc2C)nc1=O` [Compound I-0333] fall in the same range of IC50: 10 to 100 nM for the first, 10 to 100 nM for the second.

`COc1cn(Cc2ccc(F)c(F)c2)c(Nc2cccc(C)c2C)nc1=O` [Compound I-0324] and `COc1cn(Cc2ccc(F)c(Cl)c2)c(Nc2cccc(C)c2C)nc1=O` [Compound I-0325] cannot be ordered by IC50: less than 10 nM for the first, less than 10 nM for the second.

First: COc1cn(Cc2cc(F)cc(F)c2)c(Nc2cccc(C)c2C)nc1=O [Compound I-0326]
Second: CCc1ccccc1Nc1nc(=O)c(OC)cn1Cc1cc(F)cc(F)c1 [Compound I-0327]
The IC50 of the first is lower: less than 10 nM for the first, 10 to 100 nM for the second.

`COc1cn(Cc2cc(F)ccc2F)c(Nc2cccc(Cl)c2C)nc1=O` [Compound I-0328] and `COc1cn(Cc2ccc(F)cc2F)c(Nc2cccc(Cl)c2C)nc1=O` [Compound I-0329] fall in the same range of IC50: 10 to 100 nM for the first, 10 to 100 nM for the second.

`CNC(=O)Cc1cn(Cc2ccccc2)c(Nc2cccc(Cl)c2C)nc1=O` [Compound I-0330] and `Cc1c(Cl)cccc1Nc1nc(=O)c(CC(=O)NCCO)cn1Cc1ccccc1` [Compound I-0337] fall in the same range of IC50: 100 to 500 nM for the first, 100 to 500 nM for the second.

First: Cc1c(Cl)cccc1Nc1nc(=O)c(CC(=O)N(C)C)cn1Cc1ccccc1 [Compound I-0331]
Second: COc1cn(Cc2ccc(F)c(Cl)c2)c(Nc2cc(C)ccc2C)nc1=O [Compound I-0334]
The IC50 of the first is higher: 100 to 500 nM for the first, less than 10 nM for the second.

`COc1cn(Cc2ccc(F)cc2)c(Nc2cc(C)ccc2C)nc1=O` [Compound I-0332] gave an IC50 of 10 to 100 nM.
